Experimental data reported in publication PMC6271078 (Molecules, 2014).
Structures can show the parent of a compound that is named as a salt.

How the values were obtained:
Aqueous solubility = format: physicochemical; conditions: for Times Increased of Aqueous Solubility (Comp. vs. Rapa): ratio of compound solubility to Rapa solubility; for solubility / Aqueous Solubility: water

melting point [°C] | Times Increased of Aqueous Solubility (Comp. vs. Rapa) (Aqueous solubility) | solubility (Aqueous solubility) [µg/mL] | Aqueous Solubility (Aqueous solubility) [µg/mL] | Compound
145 to 148 | – | – | – | CO[C@H]1C[C@@H]2CC[C@@H](C)[C@@](O)(O2)C(=O)C(=O)N2CCCC[C@H]2C(=O)O[C@H]([C@H](C)C[C@@H]2CC[C@@H](O)[C@H](OC)C2)CC(=O)[C@H](C)/C=C(\C)[C@@H](OC(=O)C[n+]2ccc(C)cc2)[C@@H](OC)C(=O)[C@H](C)C[C@H](C)/C=C/C=C/C=C/1C (as salt: ammonium) [Compound 11, Rapa-31-ester of 2-(4-methylpyridinium-1-yl)acetic Acid]
– | 3846 | 10000 | – | CO[C@H]1C[C@@H]2CC[C@@H](C)[C@@](O)(O2)C(=O)C(=O)N2CCCC[C@H]2C(=O)O[C@H]([C@H](C)C[C@@H]2CC[C@@H](O)[C@H](OC)C2)CC(=O)[C@H](C)/C=C(\C)[C@@H](OC(=O)C[n+]2cscc2C)[C@@H](OC)C(=O)[C@H](C)C[C@H](C)/C=C/C=C/C=C/1C [Compound 8, Rapa-31-ester of 2-(4-methylthiazolium-3-yl)acetic Acid]
130 to 133 | – | – | – | CO[C@H]1C[C@@H]2CC[C@@H](C)[C@@](O)(O2)C(=O)C(=O)N2CCCC[C@H]2C(=O)O[C@H]([C@H](C)C[C@@H]2CC[C@@H](OC(=O)C[n+]3cscc3C)[C@H](OC)C2)CC(=O)[C@H](C)/C=C(\C)[C@@H](O)[C@@H](OC)C(=O)[C@H](C)C[C@H](C)/C=C/C=C/C=C/1C (as salt: ammonium) [Compound 2, Rapa-42-ester of 2-(4-methylthiazolium-3-yl)acetic Acid]
– | – | 62000 | 62500 | CO[C@H]1C[C@@H]2CC[C@@H](C)[C@@](O)(O2)C(=O)C(=O)N2CCCC[C@H]2C(=O)O[C@H]([C@H](C)C[C@@H]2CC[C@@H](O)[C@H](OC)C2)CC(=O)[C@H](C)/C=C(\C)[C@@H](OC(=O)C[n+]2ccc(C)cc2)[C@@H](OC)C(=O)[C@H](C)C[C@H](C)/C=C/C=C/C=C/1C [Compound 11, Rapa-31-ester of 2-(4-methylpyridinium-1-yl)acetic Acid]
– | 11 | 28 | – | CO[C@H]1C[C@@H]2CC[C@@H](C)[C@@](O)(O2)C(=O)C(=O)N2CCCC[C@H]2C(=O)O[C@H]([C@H](C)C[C@@H]2CC[C@@H](OC(=O)C[n+]3cscc3C)[C@H](OC)C2)CC(=O)[C@H](C)/C=C(\C)[C@@H](O)[C@@H](OC)C(=O)[C@H](C)C[C@H](C)/C=C/C=C/C=C/1C [Compound 2, Rapa-42-ester of 2-(4-methylthiazolium-3-yl)acetic Acid]
146 to 148 | – | – | – | CO[C@H]1C[C@@H]2CC[C@@H](C)[C@@](O)(O2)C(=O)C(=O)N2CCCC[C@H]2C(=O)O[C@H]([C@H](C)C[C@@H]2CC[C@@H](OC(=O)C[n+]3cccc(O)c3)[C@H](OC)C2)CC(=O)[C@H](C)/C=C(\C)[C@@H](O)[C@@H](OC)C(=O)[C@H](C)C[C@H](C)/C=C/C=C/C=C/1C (as salt: ammonium) [Compound 5, Rapa-42-ester of 2-(3-hydroxypyridinium-1-yl)acetic Acid]
– | 10269 | 26700 | – | CO[C@H]1C[C@@H]2CC[C@@H](C)[C@@](O)(O2)C(=O)C(=O)N2CCCC[C@H]2C(=O)O[C@H]([C@H](C)C[C@@H]2CC[C@@H](O)[C@H](OC)C2)CC(=O)[C@H](C)/C=C(\C)[C@@H](OC(=O)C[n+]2cccc(C)c2)[C@@H](OC)C(=O)[C@H](C)C[C@H](C)/C=C/C=C/C=C/1C [Compound 9, Rapa-31-ester of 2-(3-methylpyridinium-1-yl)acetic Acid]
– | 2308 | 6000 | – | CO[C@H]1C[C@@H]2CC[C@@H](C)[C@@](O)(O2)C(=O)C(=O)N2CCCC[C@H]2C(=O)O[C@H]([C@H](C)C[C@@H]2CC[C@@H](OC(=O)C[n+]3ccc(C)cc3)[C@H](OC)C2)CC(=O)[C@H](C)/C=C(\C)[C@@H](O)[C@@H](OC)C(=O)[C@H](C)C[C@H](C)/C=C/C=C/C=C/1C [Compound 6, Rapa-42-ester of 2-(4-methylpyridinium-1-yl)acetic Acid]
– | 4 | 10 | – | CO[C@H]1C[C@@H]2CC[C@@H](C)[C@@](O)(O2)C(=O)C(=O)N2CCCC[C@H]2C(=O)O[C@H]([C@H](C)C[C@@H]2CC[C@@H](OC(=O)C[n+]3cccc(O)c3)[C@H](OC)C2)CC(=O)[C@H](C)/C=C(\C)[C@@H](O)[C@@H](OC)C(=O)[C@H](C)C[C@H](C)/C=C/C=C/C=C/1C [Compound 5, Rapa-42-ester of 2-(3-hydroxypyridinium-1-yl)acetic Acid]
– | 2577 | 6700 | – | CO[C@H]1C[C@@H]2CC[C@@H](C)[C@@](O)(O2)C(=O)C(=O)N2CCCC[C@H]2C(=O)O[C@H]([C@H](C)C[C@@H]2CC[C@@H](OC(=O)C[n+]3cccc(C)c3)[C@H](OC)C2)CC(=O)[C@H](C)/C=C(\C)[C@@H](O)[C@@H](OC)C(=O)[C@H](C)C[C@H](C)/C=C/C=C/C=C/1C [Compound 4, Rapa-42-ester of 2-(3-methylpyridinium-1-yl)acetic Acid]
138 to 140 | – | – | – | CO[C@H]1C[C@@H]2CC[C@@H](C)[C@@](O)(O2)C(=O)C(=O)N2CCCC[C@H]2C(=O)O[C@H]([C@H](C)C[C@@H]2CC[C@@H](O)[C@H](OC)C2)CC(=O)[C@H](C)/C=C(\C)[C@@H](OC(=O)C[n+]2cccc(C)c2)[C@@H](OC)C(=O)[C@H](C)C[C@H](C)/C=C/C=C/C=C/1C (as salt: ammonium) [Compound 9, Rapa-31-ester of 2-(3-methylpyridinium-1-yl)acetic Acid]
– | 1615 | 4200 | – | CO[C@H]1C[C@@H]2CC[C@@H](C)[C@@](O)(O2)C(=O)C(=O)N2CCCC[C@H]2C(=O)O[C@H]([C@H](C)C[C@@H]2CC[C@@H](OC(=O)C[n+]3csc(C)c3C)[C@H](OC)C2)CC(=O)[C@H](C)/C=C(\C)[C@@H](O)[C@@H](OC)C(=O)[C@H](C)C[C@H](C)/C=C/C=C/C=C/1C [Compound 1, Rapa-42-ester of 2-(4,5-dimethylthiazolium-3-yl)acetic Acid]
130 to 132 | – | – | – | CO[C@H]1C[C@@H]2CC[C@@H](C)[C@@](O)(O2)C(=O)C(=O)N2CCCC[C@H]2C(=O)O[C@H]([C@H](C)C[C@@H]2CC[C@@H](O)[C@H](OC)C2)CC(=O)[C@H](C)/C=C(\C)[C@@H](OC(=O)C[n+]2cscc2C)[C@@H](OC)C(=O)[C@H](C)C[C@H](C)/C=C/C=C/C=C/1C (as salt: ammonium) [Compound 8, Rapa-31-ester of 2-(4-methylthiazolium-3-yl)acetic Acid]
– | – | 62000 | 52600 | CO[C@H]1C[C@@H]2CC[C@@H](C)[C@@](O)(O2)C(=O)C(=O)N2CCCC[C@H]2C(=O)O[C@H]([C@H](C)C[C@@H]2CC[C@@H](O)[C@H](OC)C2)CC(=O)[C@H](C)/C=C(\C)[C@@H](OC(=O)C[n+]2ccccc2)[C@@H](OC)C(=O)[C@H](C)C[C@H](C)/C=C/C=C/C=C/1C [Compound 10, Rapa-31-ester of 2-(pyridinium-1-yl)acetic Acid]
– | 10 | 25 | – | CO[C@H]1C[C@@H]2CC[C@@H](C)[C@@](O)(O2)C(=O)C(=O)N2CCCC[C@H]2C(=O)O[C@H]([C@H](C)C[C@@H]2CC[C@@H](OC(=O)C[n+]3ccccc3)[C@H](OC)C2)CC(=O)[C@H](C)/C=C(\C)[C@@H](O)[C@@H](OC)C(=O)[C@H](C)C[C@H](C)/C=C/C=C/C=C/1C [Compound 3, Rapa-42-ester of 2-(pyridinium-1-yl)acetic Acid]
140 to 142 | – | – | – | CO[C@H]1C[C@@H]2CC[C@@H](C)[C@@](O)(O2)C(=O)C(=O)N2CCCC[C@H]2C(=O)O[C@H]([C@H](C)C[C@@H]2CC[C@@H](O)[C@H](OC)C2)CC(=O)[C@H](C)/C=C(\C)[C@@H](OC(=O)C[n+]2ccccc2)[C@@H](OC)C(=O)[C@H](C)C[C@H](C)/C=C/C=C/C=C/1C (as salt: ammonium) [Compound 10, Rapa-31-ester of 2-(pyridinium-1-yl)acetic Acid]
138 to 140 | – | – | – | CO[C@H]1C[C@@H]2CC[C@@H](C)[C@@](O)(O2)C(=O)C(=O)N2CCCC[C@H]2C(=O)O[C@H]([C@H](C)C[C@@H]2CC[C@@H](OC(=O)C[n+]3cccc(C)c3)[C@H](OC)C2)CC(=O)[C@H](C)/C=C(\C)[C@@H](O)[C@@H](OC)C(=O)[C@H](C)C[C@H](C)/C=C/C=C/C=C/1C (as salt: ammonium) [Compound 4, Rapa-42-ester of 2-(3-methylpyridinium-1-yl)acetic Acid]
135 to 137 | – | – | – | CO[C@H]1C[C@@H]2CC[C@@H](C)[C@@](O)(O2)C(=O)C(=O)N2CCCC[C@H]2C(=O)O[C@H]([C@H](C)C[C@@H]2CC[C@@H](OC(=O)C[n+]3ccccc3)[C@H](OC)C2)CC(=O)[C@H](C)/C=C(\C)[C@@H](O)[C@@H](OC)C(=O)[C@H](C)C[C@H](C)/C=C/C=C/C=C/1C (as salt: ammonium) [Compound 3, Rapa-42-ester of 2-(pyridinium-1-yl)acetic Acid]
157 to 160 | – | – | – | CO[C@H]1C[C@@H]2CC[C@@H](C)[C@@](O)(O2)C(=O)C(=O)N2CCCC[C@H]2C(=O)O[C@H]([C@H](C)C[C@@H]2CC[C@@H](OC(=O)C[n+]3ccc(C)cc3)[C@H](OC)C2)CC(=O)[C@H](C)/C=C(\C)[C@@H](O)[C@@H](OC)C(=O)[C@H](C)C[C@H](C)/C=C/C=C/C=C/1C (as salt: ammonium) [Compound 6, Rapa-42-ester of 2-(4-methylpyridinium-1-yl)acetic Acid]
– | 8962 | 23300 | – | CO[C@H]1C[C@@H]2CC[C@@H](C)[C@@](O)(O2)C(=O)C(=O)N2CCCC[C@H]2C(=O)O[C@H]([C@H](C)C[C@@H]2CC[C@@H](O)[C@H](OC)C2)CC(=O)[C@H](C)/C=C(\C)[C@@H](OC(=O)C[n+]2csc(C)c2C)[C@@H](OC)C(=O)[C@H](C)C[C@H](C)/C=C/C=C/C=C/1C [Compound 7, Rapa-31-ester of 2-(4,5-dimethylthiazolium-3-yl)acetic Acid]
